Laboratory results reported in US20110046058A1, “COMPOSITIONS FOR ENTERAL ABSORPTION AND SUSTAINED ACTION OF LEPTIN-RELATED PEPTIDES USEFUL IN THE TREATMENT OF OBESITY AND LEPTIN-MODULATED DISEASE” (AEGIS THERAPEUTICS LLC, priority 2009, published 2011).
Read-outs that look alike come from different tables or passages of the source. Each block holds one molecule with its values, some of them ahead of it. Where a SMILES comes first, the peptide text is derived from it.

What was measured:
[1] = NOAEL of alkylsaccharide (FAO/WHO report); settings: per day, indefinitely
Source text: (§1) Typically, an acceptable daily intake for humans is about 1% of the NOAEL, which translates to about 14-21 grams, or 14 million micrograms to 21 million micrograms, per day, indefinitely.

[2] = in vivo
Source text: as §1

[3] = FAO/WHO report; cited from earlier work
[4] = mouse, in vivo, 1 mg
Procedure: (§2) Six week-old male Swiss Webster mice weighing approximately 30 gm were maintained at a constant temperature (24 C) with lights on from 07:00 to 19:00 h, and allowed food and water ad libitum until used for uptake studies. […] For sc, im, and ip delivery, the peptide was dissolved in sterile phosphate buffered saline (PBS, pH 7.2) at a concentration of 1 mg/200 μL as described previously containing 0.18% tetradecyl-beta-D-maltoside. For oral gavage [D-Leu-4]OB3 was dissolved in 0.3% dodecyl-beta-D-maltoside reconstituted in PBS (pH 7.2) at a concentration of 1 mg/200 μL. At time zero (0), a single 200 μL sc, im, ip or oral dose of mouse [D-Leu-4]OB3 was given to each of six mice per time point. Following peptide administration, the mice were transferred to separate cages for the designated time period.
(§3) Five, 10, 20, 40, 60, or 120 minutes after peptide delivery, the mice were anesthetized with isoflurane (5%) and exsanguinated by cardiac puncture. The blood was collected in sterile nonheparinized plastic centrifuge tubes and allowed to stand at room temperature for 1 h. The clotted blood was rimmed from the walls of the tubes with sterile wooden applicator sticks. Individual serum samples were prepared by centrifugation for 30 min at 2600×g in an Eppendorf™ 5702R, A-4-38 rotor (Eppendorf North America, Westbury, N.Y., USA), and stored frozen until assayed for mouse [D-Leu-4]OB3 content by competitive ELISA.
(§4) The [D-Leu-4]OB3 competitive ELISA assay was carried out as follows. 96-well polystyrene plates (Pierce Biotechnology, Inc., Rockford, Ill., USA) were coated with 100 μL of a 5 ug/ml solution of BSA-conjugated mouse [D-Leu-4]OB3 (QED Bioscience, San Diego, Calif.) in carbonate-bicarbonate buffer (pH 9.4). The coated plates were incubated overnight at 4 C. Unoccupied sites were blocked with 200 μL StartingBlock™ in PBS (Pierce Biotechnology Inc., Rockford, Ill., USA) for 2 h at room temperature. Mouse [D-Leu-4]OB3 standards ranging from 5 to 10,000 ng/ml are prepared in PBS (pH 7.2). In a separate incubation, 100 μL of mouse [D-Leu-4]OB3 primary antibody raised in New Zealand White rabbits (QED Bioscience, San Diego, Calif.) and diluted to 1:5000 in StartingBlock™, or 100 μL of the primary antibody+50 μL of each standard or serum sample are added to 500 μL microcentrifuge tubes and incubated for 1 h at 37 C. At the end of the incubation period, 100 μL of each antibody-bound standard or sample were added to the wells and incubated for 1 h at room temperature. HRP-conjugated goat-anti-rabbit IgG (Pierce Biotechnology Inc, Rockford, Ill., USA) was used as the secondary antibody. 100 μL was added to each well and incubated for 1 h at room temperature. At the end of the incubation period, 100 μL of ABTS substrate (Pierce Biotechnology Inc, Rockford, Ill., USA) was added to each well and incubated for 30 minutes on a rotary rocker. Color development was stopped with 1% SDS. Absorbance was read at 405 nm with a Molecular Devices microplate reader (MDS Sciex, Concord, Ontario Canada). Each sample was assayed in triplicate. […] The relative bioavailability was determined by plotting the serum concentrations of mouse [D-Leu-4]OB3 vs. time following ip, sc, or im delivery using the graphics program SigmaPlot™ 8.0 (SPSS Science, Chicago, Ill., USA). The area under each curve (AUC) was calculated with a function of this program.

[5] = mouse, in vivo
Procedure: as §2, §3, §4

[6] = mouse, in vivo; remark: listed apart in the source
Procedure: (§5) Six week-old male Swiss Webster mice weighing approximately 30 g were obtained from Taconic Farms (Germantown, N.Y., USA). The animals were housed three per cage in polycarbonate cages fitted with stainless steel wire lids and air filters, and supported on ventilated racks (Thoren Caging Systems, Hazelton, Pa., USA) in the Albany Medical College Animal Resources Facility. The mice were maintained at a constant temperature (24° C.) with lights on from 07:00 to 19:00 h, and allowed food and water ad libitum until used for uptake studies.
(§6) Following peptide administration the mice were transferred to separate cages for the designated time period.
(§7) Five, 10, 20, 40, 60, or 120 min after peptide delivery, the mice were anesthetized with isoflurane (5%) and exsanguinated by cardiac puncture. The blood was collected in sterile nonheparinized plastic centrifuge tubes and allowed to stand at room temperature for 1 h. The clotted blood was rimmed from the walls of the tubes with sterile wooden applicator sticks.
(§8) The coated plates were incubated overnight at 4° C. Unoccupied sites were blocked with 200 μL StartingBlock™ in PBS (Pierce Biotechnology Inc., Rockford, Ill., USA) for 2 h at room temperature. […] At the end of the incubation period, 100 μL of each antibody-bound standard or sample was added to the wells and incubated for 1 h at room temperature. HRP-conjugated goat-anti-rabbit IgG (Pierce Biotechnology Inc. Rockford, Ill., USA) was used as the secondary antibody. 100 μL was added to each well and incubated for 1 h at room temperature.

[7] = mouse, in vivo; remark: listed apart in the source
Procedure: as §5, §6, §7, §8

Molecule: sucrose dodecanoate
- acceptable daily intake for humans (about 1% of the NOAEL) [1]: 14-21 grams
- amount a 70 kilogram person can consume per day without any observable adverse effect [2]: 1400-2100 grams
- NOAEL [3]: 20-30 grams/kilogram/day

- AUC ([4]; im): 24700 ng·h/mL
- AUC ([4]; ip): 17900 ng·h/mL
- AUC ([4]; po): 9320 ng·h/mL
- AUC ([4]; sc): 19700 ng·h/mL
- Relative Oral Bioavailability Compared to Three Injection Modes (% of AUC achieved by each respective injection) [5]: 52.2% of IP AUC
- Relative Oral Bioavailability Compared to Three Injection Modes (% of AUC achieved by each respective injection) ([5]; po): 37.8% of IM AUC
- CL1 [6]: 1.08 mL/min
- CL2 [6]: 0.29 mL/min
- Relative bioavailability [6]: 4.0
- kelim1 [6]: 0.0986 min⁻¹
- kelim2 [6]: 0.0203 min⁻¹
- Relative bioavailability ([6]; im): 1.4
- AUC ([6]; im, 1 mg): 1,481,060 ng/ml/min
- CL (plasma clearance) ([6]; im, 1 mg): 0.68 mL/min
- Vd (apparent volume of distribution) ([6]; im, 1 mg): 29.4 mL
- CL1 + CL2 (overall clearance) ([6]; inhaled or intranasal): 1.37 mL/min
- Vd1 ([6]; inhaled or intranasal): 1.1 mL
- Vd1 + Vd2 (overall volume of distribution) ([6]; inhaled or intranasal): 15.4 mL
- Vd2 ([6]; inhaled or intranasal): 14.3 mL
- Cmax2 ([6]; inhaled or intranasal, 1 mg): 69,069 ng/ml
- Tmax2 ([6]; inhaled or intranasal, 1 mg): 60 min
- tmax1 ([6]; inhaled or intranasal, 1 mg): 10 min
- Relative bioavailability ([6]; ip): 1.0
- AUC ([6]; ip, 1 mg): 1,072,270 ng/ml/min
- CL (plasma clearance) ([6]; ip, 1 mg): 0.93 mL/min
- Vd (apparent volume of distribution) ([6]; ip, 1 mg): 65.5 mL
- Relative bioavailability ([6]; sc): 1.1
- AUC ([6]; sc, 1 mg): 1,182,498 ng/ml/min
- CL (plasma clearance) ([6]; sc, 1 mg): 0.85 mL/min
- Vd (apparent volume of distribution) ([6]; sc, 1 mg): 42.9 mL
- t1/2 (serum half-life) ([6]; sc, 1 mg): 34.0 min
- Cmax ([7]; im, 1 mg): 46600 ng/mL
- Tmax ([7]; im, 1 mg): 5 min
- AUC ([7]; im, 1 mg, AUC): 24700 ng·h/mL
- half-life ([7]; im, 1 mg, t1/2 (serum half-life)): 48.8 min
- AUC ([7]; inhaled or intranasal, 1 mg, AUC1): 15400 ng·h/mL
- AUC ([7]; inhaled or intranasal, 1 mg, AUC2): 56900 ng·h/mL
- half-life ([7]; inhaled or intranasal, t1/2 1): 7 min
- half-life ([7]; inhaled or intranasal, t1/2 1 + t1/2 2 (overall half-life)): 41.1 min
- half-life ([7]; inhaled or intranasal, t1/2 2): 34.1 min
- Cmax ([7]; ip, 1 mg): 22500 ng/mL
- Tmax ([7]; ip, 1 mg): 5 min
- AUC ([7]; ip, 1 mg, AUC): 17900 ng·h/mL
- half-life ([7]; ip, 1 mg, t1/2 (serum half-life)): 30 min
- Cmax ([7]; sc, 1 mg): 35100 ng/mL
- Tmax ([7]; sc, 1 mg): 5 min
- AUC ([7]; sc, 1 mg, AUC): 19700 ng·h/mL
- half-life ([7]; sc, 1 mg, t1/2 (serum half-life)): 35 min
Molecule: CC(C)C[C@@H](NC(=O)[C@H](CO)NC(=O)[C@H](CS)NC(=O)[C@@H](N)CO)C(=O)N1CCC[C@H]1C(=O)N[C@@H](CCC(N)=O)C(=O)N[C@H](C(N)=O)[C@@H](C)O [mouse [D-Leu-4]OB3] (HELM PEPTIDE1{S.C.S.[dL].P.Q.T.[am]}$$$$V2.0; N-terminus assumed)
